From paper PMC8868346, “Novel Series of Dual NRF2 Inducers and Selective MAO-B Inhibitors for the Treatment of Parkinson’s Disease” (Antioxidants, 2022)
Where two headings read alike, the source gives them in different places.

Experiments:
hrMAO-A = target: T1, hrMAO-A (Homo sapiens, UniProt P21397); assay: Inhibition of monoamine oxidase A (Amplex UltraRed, tyramine); type: biochemical
T1 construct: purchased Sigma–Aldrich
T1 sequence (P21397 1-527): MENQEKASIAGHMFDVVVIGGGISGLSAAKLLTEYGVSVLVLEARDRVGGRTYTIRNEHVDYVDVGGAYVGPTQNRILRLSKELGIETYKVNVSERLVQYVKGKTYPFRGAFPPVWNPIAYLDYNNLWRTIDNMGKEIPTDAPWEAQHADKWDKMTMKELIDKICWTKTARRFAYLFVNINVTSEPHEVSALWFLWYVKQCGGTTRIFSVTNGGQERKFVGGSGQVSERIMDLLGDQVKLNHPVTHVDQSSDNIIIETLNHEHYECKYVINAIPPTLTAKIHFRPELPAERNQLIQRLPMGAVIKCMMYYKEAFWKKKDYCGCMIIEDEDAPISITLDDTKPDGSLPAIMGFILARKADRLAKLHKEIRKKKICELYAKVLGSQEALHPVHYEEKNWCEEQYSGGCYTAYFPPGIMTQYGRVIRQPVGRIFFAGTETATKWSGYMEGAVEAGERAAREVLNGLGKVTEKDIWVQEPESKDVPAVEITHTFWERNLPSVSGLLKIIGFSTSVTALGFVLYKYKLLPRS

SH-SY5Y cells [1] = assay: Neuroprotection in SH-SY5Y against 6-hydroxydopamine (MTT); type: cell-based, human; conditions: 6-OHDA 100 µM; compound 0.1 µM, 24 h pre- and 24 h co-incubation
Procedure: (§1) Cells were seeded at a density of 60,000 cells/well in 96-well transparent plates for 24 h. Then cells were pre-incubated with the corresponding compound at 0.1 μM. After 24 h, the medium was removed and replaced with 1% (v/v) FBS media containing the corresponding compound at 0.1 µM and the selected toxic stimuli, namely a mixture of rotenone and oligomycin A (R/O; 30/10 μM, respectively; Sigma–Aldrich, Spain) or 6-hydroxydopamine (100 µM; Sigma–Aldrich, Spain). […].

hrMAO-B = target: T2, hrMAO-B (Homo sapiens, UniProt P27338); assay: Inhibition of monoamine oxidase B (Amplex UltraRed, tyramine); type: biochemical; conditions: for Selectivity Index (MAO-A/MAO-B): ratio IC50 MAO-A/IC50 MAO-B
T2 construct: purchased Sigma–Aldrich
T2 sequence (P27338 1-520): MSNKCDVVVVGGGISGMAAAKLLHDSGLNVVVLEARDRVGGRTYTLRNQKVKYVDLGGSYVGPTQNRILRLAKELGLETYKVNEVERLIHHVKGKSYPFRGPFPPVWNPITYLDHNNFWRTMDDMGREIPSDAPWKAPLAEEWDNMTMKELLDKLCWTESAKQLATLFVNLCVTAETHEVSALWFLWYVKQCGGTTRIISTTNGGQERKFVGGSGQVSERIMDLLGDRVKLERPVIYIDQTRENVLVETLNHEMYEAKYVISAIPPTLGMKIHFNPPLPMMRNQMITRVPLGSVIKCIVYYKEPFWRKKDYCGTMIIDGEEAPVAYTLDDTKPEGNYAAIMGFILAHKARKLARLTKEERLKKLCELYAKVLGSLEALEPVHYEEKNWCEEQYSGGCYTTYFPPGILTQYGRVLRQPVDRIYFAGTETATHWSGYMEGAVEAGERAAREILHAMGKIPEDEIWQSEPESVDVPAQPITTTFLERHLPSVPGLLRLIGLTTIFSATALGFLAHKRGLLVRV

[2] = tested on: Mixed primary glial cultures; assay: Cytotoxicity in mixed primary glial cultures (MTT); conditions: MTT reduction
Procedure: Mixed primary glial cultures were obtained from cerebral cortex of 2–5-day-old Sprague–Dawley rats. Blood vessels and meninges were first removed in Hank’s balanced salt solution (HBSS) and then forebrains were dissociated in DMEM/F12 medium. After mechanical dissociation, filtering, and centrifugation at 800 rpm for 10 min, cells were plated at a density of 30,000 cells/well in DMEM/F12 medium with 20% (v/v) FBS and 1% penicillin/streptomycin (10,000 units). […] After 5 days, medium was substituted by DMEM/F12 medium with 10% (v/v) FBS. Cells were cultured for 7–10 days before treatment.
(§2) Basal absorbance was set to 100% and results were normalized to basal conditions.
(§3) Cytotoxicity. LD50 values in several cell cultures employed
(§4) Table S2. Cytotoxicity elicited by 10-18 compounds in SH-SY5Y, AREc32 and mixed pr imary glial cultures. Viability was measured as MTT reduction in presence of increasing concentrations of der ivatives. LD50 values were calcula ted from dose-response curves. Data are expr essed as mean ± SEM of at least 3 independent experiments.
(§5) 1.3. PAMPA control compounds (BBB permeability)
(§6) Table S3. Pr ediction of the BBB passive permeability of control compounds

SH-SY5Y cells [3] = assay: Neuroprotection in SH-SY5Y against rotenone/oligomycin A (MTT); type: cell-based, human; conditions: compound 0.1 µM, 24 h pre- and 24 h co-incubation
Procedure: as §1

[4] = tested on: blood-brain barrier (passive diffusion); assay: Blood–brain barrier permeation assay (PAMPA); conditions: PAMPA, pH 7.4
Procedure: (§7) Briefly, permeability of the compounds was measured at an initial concentration of 100 µM, including positive and negative controls (Supplementary Data; Table S3). […] After 5 min, 180 µL of each compound solution in PBS (10 mM, pH 7.4) was added to determine their ability to pass the membrane (VD). The 96-well acceptor plate (Multiscreen, Millipore Corp., Madrid Spain) was loaded with 180 µL of PBS (VA). Then, the donor filter plate was carefully placed on the acceptor plate to form a sandwich-like system, which was left undisturbed for 4 h at room temperature. After incubation, the donor plate was removed and the absorbance at the maximum absorption wavelength for each compound was recorded in both the acceptor and donor wells (150 µL/well) using a UV plate reader SPECTROstar Nano (BMG Labtech, Ortenberg, Germany). Concentration of the compounds in the donor and acceptor plates and equilibrium concentration were calculated and expressed as permeability (Pe) according the Equation (1). Results are expressed as mean ± standard error of the mean (SEM) of at least three different experiments in duplicate:(1) logPe =log{C×−ln(1−[drug]acceptor/[drug]equilibrium)} where C=(VD×VA/(VD +VA)×Area×Time) .

AREc32 = conditions: MTT reduction
Procedure: AREc32 cells, shared by CR Wolf, were grown in Dulbecco’s modified Eagle medium (DMEM) with GlutaMAX (Gibco, Invitrogen, Madrid, Spain), supplemented with 10% (v/v) filtrated fetal bovine serum (FBS; Gibco, Invitrogen, Madrid, Spain), 1% of antibiotics penicillin-streptomycin, and geneticin (0.8 mg/mL G418; Gibco, Invitrogen, Madrid, Spain). […] They were recovered by centrifugation at 800 rpm for 10 min. Cells were used from the third to twelfth passage.
as §2, §3, §4, §5, §6

[5] = Oxygen radical absorbance capacity (ORAC) assay; conditions: Trolox equivalents; AAPH, fluorescein
Procedure: The ORAC test was performed to evaluate the oxygen free radical scavenger capacity of the compounds. […] Compounds at desired concentrations (0.03, 0.1, 0.3, 1, 3, and 10 µM) were diluted in phosphate-buffered saline (PBS; 10 mM, pH 7.4) at 37 °C and placed in a 96 black flat bottom well plate. […] A fluorescence measurement was done first to determine the basal signal. Then, 25 µL of 2, 2′-azobis-amidinopropane dihydrochloride (AAPH) (12 mM final concentration) was quickly added. All samples were measured in duplicates in three different experiments. […] Results were expressed in terms of Trolox equivalents (T.eq.), obtained by plotting net AUC versus compound concentration, then performing linear regression and normalizing slopes of the compounds considering Trolox as reference.

NRF2 = NRF2 induction, luciferase activity in AREc32 reporter cells; type: cell-based, human; conditions: for CD (µM) NRF2 Induction / EC50: AREc32 cells, 24 h, concentration required to double luciferase activity compared to basal; for EC50: Homo sapiens, read-out: CD (µM) NRF2 Induction; for fold potentiation of NRF2 induction compared to the corresponding -OMe derivative: 11, 12 vs 10, 14, 15 vs 13
Procedure: Cells were used from the third to twelfth passage.
AREc32 cells were stably transfected with the plasmid pGL-8xARE that implements 8 copies of the antioxidant response element (ARE) sequences followed by luciferase reporter gen. Therefore, NRF2 induction can be related to the activation of ARE sequences by measuring luciferase activity in terms of luminescence production. For NRF2 induction experiments, cells were plated in 96 white flat bottom well plates (20,000 cells/well). After 24 h, cells were incubated with selected compounds at the desired concentrations in duplicates for 24 h. The Luciferase Assay System (Promega E1500) was used according to provider protocol and luminescence was quantified in an Orion II microplate luminometer (Berthold, Germany). Fold induction of luciferase activity was normalized to basal conditions. Data were expressed as CD values, which means the concentration needed to duplicate the luciferase activity compared to basal conditions. CD values were calculated from dose–response curves fitted by non-linear regression for each compound after logarithmic transformation of the data using GraphPad Prism 8.0 software.

SH-SY5Y = conditions: MTT reduction
Procedure: They were recovered by centrifugation at 800 rpm for 10 min. Cells from the third to twelfth passage were seeded at a density of 80,000 cells/well in 96-well plates for the neuroprotection studies.
as §2, §3, §4, §5, §6

[6] = Blood–brain barrier permeation assay (PAMPA); conditions: for PAMPA Prediction: BBB permeability class from Pe
Procedure: as §7

MAO-B = target: T3, MAO-B (Homo sapiens, UniProt P27338); assay: MAO-B reversibility assay (pre-incubation times); type: biochemical; conditions: 0, 15, 30 min pre-incubation at […] IC50
T3 construct: purchased Sigma–Aldrich
T3 sequence (P27338 1-520): T2 sequence (P27338 1-520)

[7] = tested on: blood-brain barrier (passive diffusion); assay: in vitro; conditions: PAMPA, pH 7.4
Procedure: as §7

[8] = 30 min pre-incubation, 37 °C, read-out: IC50 MAO-A
[9] = 30 min pre-incubation, 37 °C, read-out: IC50 MAO-B

Structure (SMILES)	IC50 (hrMAO-A; [8])	6-OHDA Protection (%) (SH-SY5Y cells [1])	IC50 (hrMAO-B; [9])	Selectivity Index (MAO-A/MAO-B) (hrMAO-B)	LD50 (µM) Mixed primary glial cultures [2]	R/O (30/10 µM) Protection (%) (SH-SY5Y cells [3])	Papp at 4 h, 100 µM [4]	LD50 (µM) AREc32 (AREc32)	ORAC (T. eq.) [5]	CD (µM) NRF2 Induction (NRF2)	EC50 (NRF2)	LD50 (µM) SH-SY5Y (SH-SY5Y)	PAMPA Pe (10^−6 cm s^−1) ([6]; 100 µM, porcine brain lipid, 4 h, PBS pH 7.4)	PAMPA Prediction [6]	fold potentiation of NRF2 induction compared to the corresponding -OMe derivative (NRF2)	MAO-B inhibition reversibility (MAO-B)	IC50 (hrMAO-A)	IC50 (hrMAO-B)	Papp [7]	MAO isozyme selectivity (hrMAO-B; MAO-B vs MAO-A)
C#CC(=O)NCCc1c[nH]c2ccc(OC(=O)/C=C/c3ccc(C)cc3)cc12 [Compound 18, 3-(2-Propiolamidoethyl)-1H-indol-5-yl-(E)-3-(p-tolyl) Acrylate]	81.9 ± 5.4 µM	43.8%	13.9 ± 1.2 µM	5.89	1.21 ± 0.24 µM	32.1%	2.04 ± 3.2 ×10⁻⁶ cm/s	< 1 µM	1.42 ± 0.13 T. eq.	no activity										
CC(C)(C)c1cc(O)ccc1O [TBHQ, Tert-Butylhydroquinone, reference compound]											1.82 ± 0.09 µM									
C#CCNCCc1c[nH]c2ccc(OC(=O)/C=C/c3ccc(C)cc3)cc12 [Compound 12, 3-(2-(Prop-2-yn-1-ylamino)ethyl)-1H-indol-5-yl-(E)-3-(p-tolyl)acrylate]	59.1 ± 6 µM	absence of protection	3.03 ± 0.27 µM		7.42 ± 1.3 µM	53.5%	1.84 ± 0.48 ×10⁻⁶ cm/s	11.1 ± 2.0 µM			2.99 ± 0.26 µM	11.6 ± 0.90 µM	low Pe value	CNS − (CNS—(low BBB permeability): Pe (10^−6 cm s^−1) < 2.0)	10 fold					
Cn1c(=O)c2c(ncn2C)n(C)c1=O [Caffeine, reference compound]														CNS -						
C#CC(=O)NCCc1c[nH]c2ccc(OC(=O)C=Cc3ccccc3)cc12 [Compound 17, 3-(2-Propiolamidoethyl)-1H-indol-5-yl Cinnamate]	> 100 µM	58.4%	50 ± 2.9 µM			49.3%	3.12 ± 1.2 ×10⁻⁶ cm/s	< 1 µM	2.27 ± 0.08 T. eq.	no activity		9.06 ± 0.31 µM				reversible inhibition				
C#CCNCCc1c[nH]c2ccc(OC(=O)C=Cc3ccccc3)cc12 [Compound 11, 3-(2-(Prop-2-yn-1-ylamino)ethyl)-1H-indol-5-yl Cinnamate]		absence of protection			17.8 ± 2.9 µM	48.6%		7.83 ± 1.2 µM			1.8 ± 0.28 µM	16.4 ± 2.32 µM		CNS + (CNS + (high BBB permeability): Pe (10^−6 cm s^−1) > 4.0)	7 fold	reversible inhibition	43.8 ± 6.5 µM	3 ± 0.21 µM	5.08 ± 1.7 ×10⁻⁶ cm/s	
C#CC(=O)NCCc1c[nH]c2ccc(OC)cc12 [Compound 16, N-(2-(5-Methoxy-1H-indol-3-yl)ethyl) Propiolamide]	> 100 µM	48.1%	> 100 µM	at least 2	8.81 ± 2.2 µM	47.3%	6.64 ± 1.3 ×10⁻⁶ cm/s		2.67 ± 0.14 T. eq.		1.35 ± 0.12 µM	4.87 ± 0.60 µM		CNS + (CNS + (high BBB permeability): Pe (10^−6 cm s^−1) > 4.0)						not active
